# Measured values: US20160192641A1, “STABLE EMULSION FORMULATION HINDERING INTERACTION ACROSS THE WATER-OIL INTERFACE” (Dow AgroSciences LLC, priority 2007, published 2016)
# Source text: For a given oil phase which is often designed to meet specific market, customer, or application needs, actives or other components in aqueous phase can form and grow large crystals in oil phase due to high solubilities and Oswald Ripening, and result in emulsion destabilization.
Structure (SMILES),solubility in methyl soyate [% by wt],solubilities in acetochlor [ppm]
O=C(Nc1ccc(F)cc1F)c1cccnc1Oc1cccc(C(F)(F)F)c1 [diflufenican],> 1,–
COc1cnc(OC)n2nc(NS(=O)(=O)c3c(OCC(F)F)cccc3C(F)(F)F)nc12 [penoxsulam],–,> 1000
